Measurements as given in US10544444B2, “Compositions for in situ labeling of bacterial cell walls with fluorophores and methods of use thereof” (priority 2012, dated 2020).

Tests used:
[1] = system: Agrobacterium tumefaciens; assay: Cell wall / PG labeling of live A. tumefaciens, fluorescence microscopy; assay type: cell-based; conditions: for incorporation into the cell wall: control experiments, fluorescent D-Ala vs fluorescent L-Ala
[2] = system: E. coli, B. subtilis, A. tumefaciens, L. lactis, M. conglomeratus, C. crescentus and S. aureus; assay: Short pulse labeling of evolutionarily distinct bacteria; assay type: cell-based; conditions: pulsed for 2%-8% of generation time, immediately fixed

Compound	incorporation into the cell wall [1]	PG labeling, long labeling pulses ([1]; live A. tumefaciens, long pulse)	visibility of sites of active cell wall synthesis [2]
NC(CNC(=O)c1cc2ccc(O)cc2oc1=O)C(=O)O (stereo not shown) [HADA]	incorporated into the cell wall	uniformly label PG	sites of active synthesis were clearly visible
N[C@@H](CNC(=O)c1cc2ccc(O)cc2oc1=O)C(=O)O [HALA]	only D-HCC was incorporated		
